Laboratory results reported in patent US7592326B2, “Method for stimulating the immune, inflammatory or neuroprotective response” (priority 2004, dated 2009).

Experiments:
C. neoformans strain 52 = assay: Murine model of C. neoformans infection (proposed procedure)
[1] = assay type: in vitro ADME, human
Description: Commercially supplied pooled human serum (100 uL) (Cambrex Bio Science Walkersville, Inc.) was diluted in ion-exchanged water. An aliquot of the resulting human serum solution was subjected to HPLC analysis (conditions: COSMOSIL 5C18-AR-II column (4.6×200 mm); buffer A; buffer B, 80% acetonitrile in water; gradient, 0-10 min A 100%, 10-60 min A:B=100:0 to A:B=40:60 in 50 min; detection 254 nm, flow rate, 1.0 mL/min, temperature 40° C.). Separately, a 100 uM of c-di-GMP solution in human serum was prepared by adding 100 uL of a 500 uM c-di-GMP aqueous solution to a mixture of 390 uL of human serum and 10 uL of 40 mM 2-methylbenzimidazole (an internal standard for estimating the extent of decomposition of c-di-GMP) in methanol. An aliquot of the test solution was diluted immediately after the preparation solution and then heated at 100° C. for 5 min to quench activity of enzymes. The resulting test sample was subjected to HPLC analysis after 24 h treatment. Peaks that appeared in both analyses were compared. Results are based on 3 independent experiments.

immature DCs = assay: Surface phenotype of DCs exposed to c-di-GMP (flow cytometry); assay type: cell-based, human
Description: Peripheral blood mononuclear cells (PBMC) were isolated by Ficoll-Hypaque gradient separation of buffy coats obtained from healthy volunteer blood donors by the Transfusion Center of Università Degli Studi “La Sapienza” Rome. DCs were generated from monocytes purified from PBMC by positive selection using magnetic cell separation columns and CD14 Microbeads. Highly enriched monocytes (>95% CD14^+) were cultured at 6×10^5/ml in RPMI 1640 medium supplemented with 15% heat-inactivated fetal calf serum (FCS), L-glutamine and penicillin-streptomycin and 250 ng/ml granulocyte macrophage-colony stimulating factor (GM-CSF) and 500 U/ml interleukin (IL)-4 at 37° C. for 5 days. Differentiation to DC was assessed both by morphologic observation and the detection of specific surface markers by flow cytometry. These cells were CD14^−, CD1a^+, HLA-DR^intermediate, HLA-ABC^intermediate CD80^low, CD86^low consistent with an immature DC phenotype. Untreated immature DCs were used as controls. […] LPS-treated DCs became stimulated/activated and produced CD83^+, HLA-DR^high, HLA-ABC^high consistent with a mature DC phenotype. […] Experiments using trypan blue exclusion tests were always performed in order to exclude any aspecific toxicity of c-di-GMP. NaCl (0.9%) used to resuspend the compound was always included as control. Cell staining was performed using mouse monoclonal antibodies FITC- or PE-conjugate. The following mAbs were used: CD14 (IgG1, PE), CD1a (IgG1, FITC), HLA-DR (IgG2a, FITC), HLA-ABC (IgG1, FITC), CD80 (IgG1, FITC), CD86 (IgG1, FITC); CD83 (IgG2b, PE), CXCR4 (IgG2aPE), CCR5 (IgG2a, FITC), CD32 (IgG2b, FITC). CD40, CCR7 and mannose receptor (MR) staining was performed using mouse mAb followed by FITC-conjugated affinity purified, isotype-specific goat anti-mouse Abs. Samples were analyzed using a FACScan flow cytometer and CellQuest software (Becton Dickinson). To investigate whether c-di-GMP induced phenotypic differentiation of human DCs, immature and mature DCs were cultured with c-di-GMP for 24 h and then analyzed for surface molecule expression.

[2] = test system: Primary hippocampal cells; assay: Staurosporine-induced cell death in primary hippocampal cultures (CellTiter 96 AQueous Assay); assay type: cell-based
Description: To assess the role of cyclic dinucleotides in modulating the neurological response, i.e., prevent cell death induced by staurosporine (STS) in primary hippocampal nerve cells, the effects of c-di-GMP on hippocampal cells was analyzed. Primary hippocampal cells were prepared according to previously described methods (Pereira et al., 1993). Briefly, the hippocampi were dissected from the brain of 18-day-old fetal rats. Following enzymatic and mechanical dissociation, cells were plated at a density of 100,000 cells/well in 96-well plates pre-coated with matrigel. At the 7th day after plating, cultures were subjected to one of the following treatments: (i) vehicle (24 h), (ii) STS (100 nM, 22 h), (iii) c-di-GMP (24 h), (iv) c-di-GMP (2 h) followed by c-di-GMP -plus-STS (22 h), (v) c-di-GMP -plus-STS (24 h), or (vi) STS (2 h) followed by c-di-GMP -plus-STS (22 h). At the end of the treatments, cell viability was analyzed using CellTiter 96® AQueous Assay (Promega). The assay involves the spectrophotometric measurement (at 490 nm) of the mitochondrial conversion of a tetrazolium dye into a colorful product. The absorbance of the assay correlates with the number of metabolically active cells.

[3] = test system: autologous or allogeneic PBMC; assay: Mixed leukocyte reaction with irradiated DCs ([3H]thymidine incorporation); assay type: cell-based, human; conditions: 100 μM c-di-GMP-treated immature DCs
Description: DCs were stimulated for 24 h with c-di-GMP or LPS and were then extensively washed and suspended in RPMI 1640 supplemented with 10% human serum, L-glutamine, and penicillin/streptomicin, irradiated (3,000 rad from a ^137Cs source) and added in graded doses to 1×10^5 responder T cells in 96 flat-bottom microplates. Responder cells were autologous or allogeneic PBMC. After 5 days, cultures were pulsed for 18 h with 0.5 µCi/well of [^3H]thymidine. Cells were then harvested onto glass fiber filters, and [^3H]thymidine incorporation was measured by liquid scintillation spectroscopy.

## Nc1nc(=O)c2ncn([C@@H]3OC4COP(=O)(O)O[C@H]5[C@@H](O)[C@H](n6cnc7c(=O)nc(N)[nH]c76)O[C@@H]5COP(=O)(O)OC4C3O)c2[nH]1 (stereo partly shown) [c-di-GMP, Bis(3′→5′)-cyclic diguanylic acid]
C. neoformans strain 52; C57BL/6 mice
  pathogen burden compared with controls: significantly reduced
  pulmonary eosinophilia: significantly reduced
C. neoformans strain 52; lung, C57BL/6 mice
  IFN production and total numbers of CD4^+/IFN-γ^+ cells: increased
C. neoformans strain 52; oral, intranasal, i.p., i.v., s.q., or i.m. administration
  survival: increase survival
[1]
  stability in human serum: stable
Immature DCs; 0.5 μM c-di-GMP
  effect in dose-response titration on DCs: No effect
Immature DCs; 200 μM c-di-GMP
  effect in dose-response titration on DCs: inconsistent results
Immature DCs; DCs with LPS, data not shown
  LPS-induced maturation: did not interfere
Immature DCs; data not shown
  surface expression of CD1a, HLA-ABC, CCR5 and CD40: did not affect
Immature DCs; immature DCs, 24 h, FIG. 1C
  expression of chemokine receptor CXCR4: significantly increased
Immature DCs; immature DCs, 24 h, FIG. 1D
  expression of chemokine receptor CCR7: significantly increased
Immature DCs; immature DCs, 24 h, FIG. 1F
  expression of CD86 (B7-2) (percentage of positive cells): up-regulated
Immature DCs; immature DCs, 24 h, FIG. 1H
  CD32 expression: not affected
Immature DCs; immature DCs, 24 h, dose-dependent, no effect at high concentrations, FIG. 1B
  expression of CD83 (mean fluorescence): slightly up-regulated
Immature DCs; immature DCs, 24 h, dose-dependent, FIG. 1E
  expression of CD80 (B7-1): slightly increased
Immature DCs; immature DCs, 24 h, dose-dependent, FIG. 1G
  expression of mannose receptor (MR) (mean fluorescence): reduced
Immature DCs; immature DCs, c-di-GMP 5, 50, 100 μM, 24 h, FIG. 1A
  expression of HLA-DR (MFI, percentage of positive cells): up-regulated
[2]; 0.1-10 μM applied together with or after STS
  number of metabolic active cells vs STS alone: on average higher
[2]; 0.1-10 μM, 2 h before STS 100 nM, FIG. 5
  STS-induced cell death, pre-treatment: prevented the STS-induced cell death
[2]; 24 h
  toxicity to primary hippocampal cultures: not toxic
[3]; FIG. 4A
  autologous T cell proliferation, increase compared to untreated DCs: five-fold
[3]; FIG. 4B
  heterologous T cell proliferation, increase compared to untreated DCs: two-fold
